According to patent publication US9206130B2, “Quinoline derivatives as AXL kinase inhibitors” (Max-Planck-Gesellschaft zur Förderung der Wissenschaften …, priority 2008, dated 2015):

Legend:
[1] = molecular target: T1, wild type AXL (wtAXL) receptor tyrosine kinase (Homo sapiens, UniProt P30530); experiment: NIH-3T3-AXL cellular tyrosine kinase assay (inhibition of AXL phosphorylation); format: cell-based; conditions: AXL phosphorylation in NIH-3T3-AXL (clone 22) cells, serum-depleted, 2 h with compound, immunoprecipitation / anti-phosphotyrosine blot
T1 construct: WtAXL cDNA was cloned into vector pLXSN(ESK) and transfected into Phoenix E packaging cells; expressed in transfected cells; host or cells: NIH3T3 N7 mouse fibroblasts, retrovirally infected (clone 22)
T1 sequence (P30530 26-894): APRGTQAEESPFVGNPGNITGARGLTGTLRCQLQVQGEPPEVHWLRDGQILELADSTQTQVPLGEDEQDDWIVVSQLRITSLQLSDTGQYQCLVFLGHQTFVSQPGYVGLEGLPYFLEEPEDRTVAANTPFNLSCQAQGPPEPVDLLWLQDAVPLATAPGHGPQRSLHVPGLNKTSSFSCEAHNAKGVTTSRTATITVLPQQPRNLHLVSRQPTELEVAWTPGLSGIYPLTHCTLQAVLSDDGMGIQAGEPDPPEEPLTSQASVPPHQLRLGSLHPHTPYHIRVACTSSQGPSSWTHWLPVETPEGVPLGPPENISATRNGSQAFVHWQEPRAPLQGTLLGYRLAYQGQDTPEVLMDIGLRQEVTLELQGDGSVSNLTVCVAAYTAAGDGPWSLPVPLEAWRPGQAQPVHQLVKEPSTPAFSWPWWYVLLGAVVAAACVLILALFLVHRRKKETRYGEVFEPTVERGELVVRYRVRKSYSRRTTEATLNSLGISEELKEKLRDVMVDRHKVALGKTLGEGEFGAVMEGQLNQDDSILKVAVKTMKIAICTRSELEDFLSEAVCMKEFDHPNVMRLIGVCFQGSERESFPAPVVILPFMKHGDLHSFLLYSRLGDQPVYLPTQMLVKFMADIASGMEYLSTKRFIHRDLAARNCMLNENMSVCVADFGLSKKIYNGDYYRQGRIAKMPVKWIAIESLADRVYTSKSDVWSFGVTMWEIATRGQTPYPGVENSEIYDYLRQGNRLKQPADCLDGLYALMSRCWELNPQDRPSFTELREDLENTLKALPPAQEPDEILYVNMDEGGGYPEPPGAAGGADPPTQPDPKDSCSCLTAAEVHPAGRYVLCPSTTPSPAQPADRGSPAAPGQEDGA
Experimental: 3) Inhibitory Activity of Compounds on Axl Phosphorylation in NIH-3T3-AXL Cellular Tyrosine Kinase Assay
The viral supernatant was collected and used to infect target cells NIH3T3 N7. Monoclonal NIH3T3-AXL cell lines stably expressing wtAXL were generated by selecting retrovirally infected cells in medium containing puromycin (2 μg/ml) and subsequent clonal separation.
NIH-3T3-AXL Cellular Kinase Assay
Serial dilutions of compounds were added, and the cells were further incubated or 2 h. […] The clarified cell lysate (10 min at 13000 rpm at 4° C.) were used for immunoprecipitation. Equal amounts of protein were mixed with 2 μg anti-AXL polyclonal antibody (homemade) and 20 μl Protein A sepharose beads, and rotated for 6 hr at 4° C. After immunoprecipitation, the beads were washed three times with 1×HNTG (50 mM HEPES (pH 7.5), 150 mM NaCl, 10% Glycerol, 0.2% Triton X-100). The final pellet was suspended in 20 μl 2× Laemmli buffer, and boiled for 5 min at 100° C. […] The membrane was then incubated with anti-phosphotyrosine antibody (4G10) overnight at 4° C. followed by washing with 1×TBST buffer three times. After incubating membrane with HRP-conjugated anti-mouse secondary antibody for 1 hour at room temperature followed by washing with 1×TBST buffer three times, the proteins were visualized by ECL.

SMILES	IC50 [1] [nM]	melting point [°C]
COc1cc2nccc(Oc3ccc(NS(=O)(=O)c4cccc(OC(F)F)c4)c(F)c3)c2cc1OC [Example A15, 3-Difluoromethoxy-N-[4-(6,7-dimethoxy-quinolin-4-yloxy)-2-fluoro-phenyl]-benzenesulfonamide]	2260	238 to 239
COc1cc2nccc(Oc3ccc(NS(=O)(=O)/C=C/c4ccccc4)c(F)c3)c2cc1OC [Example A16, 2-Phenyl-ethenesulfonic acid [4-(6,7-dimethoxy-quinolin-4-yloxy)-2-fluoro-phenyl]-amide]	1810	224 to 225
COc1cc2nccc(Oc3ccc(NS(=O)(=O)c4cccc5ccccc45)c(F)c3)c2cc1OC [Example A17, Naphthalene-1-sulfonic acid [4-(6,7-dimethoxy-quinolin-4-yloxy)-2-fluoro-phenyl]-amide]	890	243 to 245
COc1cc2nccc(Oc3ccc(NS(=O)(=O)c4cc(Cl)sc4Cl)c(F)c3)c2cc1OC [Example A18, 2,5-Dichloro-thiophene-3-sulfonic acid [4-(6,7-dimethoxy-quinolin-4-yloxy)-2-fluoro-phenyl]-amide]	2100	223 to 225
COc1cc2nccc(Oc3ccc(NS(=O)(=O)c4ccc(Br)c(C)c4)c(F)c3)c2cc1OC [Example A19, 4-Bromo-N-[4-(6,7-dimethoxy-quinolin-4-yloxy)-2-fluoro-phenyl]-3-methyl-benzenesulfonamide]	4500	199 to 201
COc1cc2nccc(Oc3ccc(NS(=O)(=O)c4ccc(F)c(F)c4F)c(F)c3)c2cc1OC [Example A20, N-[4-(6,7-Dimethoxy-quinolin-4-yloxy)-2-fluoro-phenyl]-2,3,4-trifluoro-benzenesulfonamide]	5050	188 to 190
COc1cc2nccc(Oc3ccc(NS(=O)(=O)c4ccc(C)s4)c(F)c3)c2cc1OC [Example A21, 5-Methyl-thiophene-2-sulfonic acid [4-(6,7-dimethoxy-quinolin-4-yloxy)-2-fluoro-phenyl]-amide]	4700	218 to 220
COc1cc2nccc(Oc3ccc(NS(=O)(=O)c4ccco4)c(F)c3)c2cc1OC [Example A22, Furan-2-sulfonic acid [4-(6,7-dimethoxy-quinolin-4-yloxy)-2-fluoro-phenyl]-amide]	9600	210 to 212
COc1cc2nccc(Oc3ccc(NS(=O)(=O)c4cccc(Br)c4)c(F)c3)c2cc1OC [Example A24, 3-Bromo-N-[4-(6,7-dimethoxy-quinolin-4-yloxy)-2-fluoro-phenyl]-benzenesulfonamide]	2400	255 to 257
COc1cc2nccc(Oc3ccc(NS(=O)(=O)c4cccc(Cl)c4)c(F)c3)c2cc1OC [Example A25, 3-Chloro-N-[4-(6,7-dimethoxy-quinolin-4-yloxy)-2-fluoro-phenyl]-benzenesulfonamide]	2380	250 to 251
COc1cc2nccc(Oc3ccc(NS(=O)(=O)c4cccc(C)c4)c(F)c3)c2cc1OC [Example A26, N-[4-(6,7-Dimethoxy-quinolin-4-yloxy)-2-fluoro-phenyl]-3-methyl-benzenesulfonamide]	4730	244 to 245
COc1cccc(S(=O)(=O)Nc2ccc(Oc3ccnc4cc(OC)c(OC)cc34)cc2F)c1 [Example A27, N-[4-(6,7-Dimethoxy-quinolin-4-yloxy)-2-fluoro-phenyl]-3-methoxy-benzenesulfonamide]	2540	224 to 225
COc1cc2nccc(Oc3ccc(NS(=O)(=O)c4ccc(Cl)s4)c(F)c3)c2cc1OC [Example A28, 5-Chloro-thiophene-2-sulfonic acid [4-(6,7-dimethoxy-quinolin-4-yloxy)-2-fluoro-phenyl]-amide]	3900	187 to 189
COc1cc2nccc(Oc3ccc(NS(=O)(=O)c4ccc(Br)s4)c(F)c3)c2cc1OC [Example A29, 5-Bromo-thiophene-2-sulfonic acid [4-(6,7-dimethoxy-quinolin-4-yloxy)-2-fluoro-phenyl]-amide]	2300	207 to 209
COc1cc2nccc(Oc3ccc(NS(=O)(=O)c4cccc(Oc5ccccc5)c4)c(F)c3)c2cc1OC [Example A30, N-[4-(6,7-Dimethoxy-quinolin-4-yloxy)-2-fluoro-phenyl]-3-phenoxy-benzenesulfonamide]	630	179 to 180
CCn1cc(S(=O)(=O)Nc2ccc(Oc3ccnc4cc(OC)c(OC)cc34)cc2F)cn1 [Example A31, 1-Ethyl-1H-pyrazole-4-sulfonic acid [4-(6,7-dimethoxy-quinolin-4-yloxy)-2-fluoro-phenyl]-amide]	> 10000	211 to 213
COc1cc2nccc(Oc3ccc(NS(=O)(=O)c4cn(C)cn4)c(F)c3)c2cc1OC [Example A32, 1-Methyl-1H-imidazole-4-sulfonic acid [4-(6,7-dimethoxy-quinolin-4-yloxy)-2-fluoro-phenyl]-amide]	> 10000	215 to 217
COc1cc2nccc(Oc3ccc(NS(=O)(=O)C4CC4)c(F)c3)c2cc1OC [Example A33, Cyclopropanesulfonic acid [4-(6,7-dimethoxy-quinolin-4-yloxy)-2-fluoro-phenyl]-amide]	> 10000	179 to 180
COc1cc2nccc(Oc3ccc(NS(=O)(=O)c4cccc(-c5ccccc5)c4)c(F)c3)c2cc1OC [Example A34, Biphenyl-3-sulfonic acid [4-(6,7-dimethoxy-quinolin-4-yloxy)-2-fluoro-phenyl]-amide]	430	193 to 195
COc1cc2nccc(Oc3ccc(NS(=O)(=O)c4ccc(-c5ccccc5)s4)c(F)c3)c2cc1OC [Example A36, 5-Phenyl-thiophene-2-sulfonic acid [4-(6,7-dimethoxy-quinolin-4-yloxy)-2-fluoro-phenyl]-amide]	2800	186 to 188
COc1cc2nccc(Oc3ccc(NS(=O)(=O)c4ccc(-c5cnco5)s4)c(F)c3)c2cc1OC [Example A37, 5-Oxazol-5-yl-thiophene-2-sulfonic acid [4-(6,7-dimethoxy-quinolin-4-yloxy)-2-fluoro-phenyl]-amide]	> 10000	206 to 208
COc1cc2nccc(Oc3ccc(NS(=O)(=O)c4cc(F)cc(F)c4)c(F)c3)c2cc1OC [Example A38, N-[4-(6,7-Dimethoxy-quinolin-4-yloxy)-2-fluoro-phenyl]-3,5-difluoro-benzenesulfonamide]	> 10000	243 to 245
COc1cc2nccc(Oc3ccc(NS(=O)(=O)c4cc(Cl)cc(Cl)c4)c(F)c3)c2cc1OC [Example A43, 3,5-Dichloro-N-[4-(6,7-dimethoxy-quinolin-4-yloxy)-2-fluoro-phenyl]-benzenesulfonamide]	< 1000	240 to 242
COc1cc2nccc(Oc3ccc(NS(=O)(=O)c4ccc(C(F)(F)F)cc4Br)c(F)c3)c2cc1OC [Example A45, 2-Bromo-N-[4-(6,7-dimethoxy-quinolin-4-yloxy)-2-fluoro-phenyl]-4-trifluoromethyl-benzenesulfonamide]	> 10000	236 to 238
COc1cc2nccc(Oc3ccc(NS(=O)(=O)c4cc(C(F)(F)F)ccc4Br)c(F)c3)c2cc1OC [Example A46, 2-Bromo-N-[4-(6,7-dimethoxy-quinolin-4-yloxy)-2-fluoro-phenyl]-5-trifluoromethyl-benzenesulfonamide]	> 10000	227 to 230
